Data reported in patent publication US6787564B2, “Optically active clausenamides, process of the preparation thereof, pharmaceutical composition containing the same and their medical use” (Institute of Materia Medica, Chinese Academy of Medical …, priority 2002, dated 2004).

What was measured:
[1] = test system: rats; test: mossy fiber sprouting in fascia dentata and hippocampal CA3 region; format: in vivo; details: 8 and 40 mg·kg^−1 orally daily for 10 days; adult rat
Description: 2. […] This is morphological basis for levoclausenamide to incnease synaptic transmission (see FIGS. 1 and 2).

[2] = test system: BDNF; test: BDNF protein expression in cortical neurons and hippocampal pyramide cells; format: in vivo, rats; details: 8, 40 mg·kg^−1 orally daily for 10 days
[3] = test system: A β 25-35 treated rats; test: Morris water maze, A β 25-35 induced impairment of memory; format: in vivo
Description: Pathological features of Alzheimer's disease (AD) include extensive neuronal loss and the presence of numerous neurofibrillary tangles and senile plaques in the brain. The senile plaques contain amyloid fibrils derived from a 39-43 amino acids peptide referred to as β-amyloid or A β which can produce neurotoxicity. A β 25-35 poccesses the similar neurotoxicity and ability of self-aggregation as A β 1-42. Administrated aggregated A β 25-35 into rat's lateral cerebral ventricle induced memory impairment in Morris water maze.
With increasing of training days, the initial heading angle became small. On the 3th day, the initial heading angle of A β group was larger than control. […] (see Tab.3)
There are four strategies for finding platform in Morris water maze: random, circle, taxis and line. In the beginning of training the search strategies for finding target is mainly circle and random, with the increasing of training, the percentage of the two strategies declined gradually, Beginning from the 3th day, declining speed in control and (−) clausenamide group was faster than A β,(+) clausenamide and piracetam groups.

[4] = test system: Bcl-2; test: Bcl-2 expression level by western blot in 6-OHDA treated Bax α high expressing PC12 cells; format: cell-based; details: 10^−7M, 10^−6M; 24 hours after 6-OHDA treatment
Description: It means that Bax α expression may promote the production of reactive oxygen species. The antiapoptotic effect of (−) clausenamide may be attributed to its reduction of the mitochondrial MDA level and the increase of mitochondrial GSH level. The increased mitochondrial GSH may be the result of the increased Bcl-2 level. As Bcl-2 itself is not an antioxidant, it may promote the closing of PT pores, and form heterodimers with Bax α and protect the mitochondria from injury and thus reduce the production of reactive oxygen, species.

[5] = test system: mitochondrial complex I; test: mitochondrial complex I activity in Bax α high expressing PC12 cells; format: cell-based; details: without drug 1.44±0.16
Description: (§1) Obviously, the increased mitochondrial membrane potential is considered to be one of the antiapoptotic mechanisms of (−) Clausenamide. The increased mitochondrial complex I and complex IV activity may account for the increased mitochondrial membrane potential. The Bax α protein may induce apoptosis by affecting enzyme activities of the mitochondrial electron transfer chain. And the mitochondrial complex I and complex IV could be the targeting points of the Bax α protein.

[6] = test system: mitochondrial complex IV; test: mitochondrial complex IV activity in Bax α high expressing PC12 cells; format: cell-based; details: without drug 0.09±0.019
Description: as §1

[7] = test system: isolated mitochondria; test: Bax α induced cytochrome c release from isolated mitochondria; format: biochemical
Description: Studies have shown that the widely existing cytochrome c plays an important role in inducing apoptosis. Cytochrome c is the water soluble cytochrome within the cell and existed at the outside of the mitochondria inner membrane. Cytochrome c could be released into the cytoplasm from the mitochondrial to activate the apoptotic program. This study first purified the His-tagged Bax protein from the bacteria by the Metal Affinity method. When added to the isolated mitochondria, it caused a significant decrease of mitochondrial cytochrome c content (74.43±5.69 ug/mg, pro vs 50.2±3.65 ug/mg pro, p<0.01). […] It means that (−) clausenamide may also act directly on mitochondrial itself to exert its antiapoptotic activity independent Bcl-2. The exact mechanism of action still remains to be determined.

[8] = test system: apoptosis; test: three apoptotic models; format: cell-based; details: 10^−7−10^−5 mol/l
[9] = test system: animals with anisodine-induced memory impairment; test: step-down test, memory impairment induced by anisodine; format: in vivo
Description: This invention used one trial avoidance task—step-down and step-through tests and water maze to compare the improving memorial effects of (±), (−) clausenamide. The drugs were given orally once to animals before experiment in step-down and step-through tests. The water maze test lasted for 5 days in succession. The results were expressed as latency and errors number.

[10] = test system: dentate gyrus of hippocampus; test: induction of LTP in hippocampal of rat (population spike amplitude); format: in vivo, SD rats; details: I.C.V.; means ± SD
Description: Adult male SD rats were anesthetized to maintain a surgical level. A stainless steel cannula-recording electrode was placed in DG (dentate gyrus) of hippocampus using a stereotaxic instrument. The combination of cannula-recording electrode was constructed by insulating the outside of the cannula, except at the tip and top. In the top noninsulated area, a stainless steel wire was wrapped around the cannula and connected to the amplifier via an amphenol connector. The four pairs optically active clausenamides shown in table 9 was delivered by I.C.V. Responses were evoked via direct stimulation of the performant path (PP) using a stainless steel bipolar stimulating electrode. Constant current stimulation provided by a stimulator was delivered to the stimulating electrode through a Stimulus Isolation Unit.
The stimulating electrode was adjusted until a characteristic EPSP was observed under constant current. The evoked responses were amplified on a series alternating current preamplifier, using a microcomputer, and then stored for off-line analysis using DataWave software. The current intensity that elicited a 50% maximal response in each animal was determined and used for all subsequent stimulation. To measure treatment effects, responses were evoked once every 30 sec throughout the entire experiment, and population spike amplitude(PSA) were calculated.

[11] = test system: weaning mice; test: synapses density in weaning mice; details: mouse, in vivo
[12] = test system: zif/268; test: protein biosyntheses of mice brain and zif/268 expression; details: mouse, in vivo

CN1C(=O)[C@@H](O)[C@H](c2ccccc2)[C@@H]1[C@@H](O)c1ccccc1 [(−)clausenamide, 3S, 4R, 5R, 6S (−) Levoclausenamide]
mossy fiber sprouting in the fascia dentate and stratum lucidum [1]: dose-dependently increased | BDNF protein expression in the cortical neurons and pyramide cells in the hippocampus [2]: dose-dependently increased | spatial learning and memory impairment induced by aggregated A β 25-35 ([3]; 8,40 mg·kg^−1 daily for 8 days from the 8th day after icv 15 nmol aggregated A β 25-35): significantly ameliorated | initial heading angle on the 3th day (in words) ([3]; (−),(+) clausenamide 8 and 40 mg.kg^−1, piracetam 400 mg·kg^−1, vs A β group): significantly reduced the angle | latency for finding the platform, 3th to 5th day ([3]; (−),(+) clausenamide 8 and 40 mg·kg^−1, piracetam 400 mg.kg^−1, vs A β group): shorter than that of A β group | initial heading angle, training day 1 ([3]; A β 25-35 + drug at 8 mg/kg): 89.7 ± 29.4 | initial heading angle, training day 2 ([3]; A β 25-35 + drug at 8 mg/kg): 72.3 ± 19.8 | initial heading angle, training day 3 ([3]; A β 25-35 + drug at 8 mg/kg): 46.5 ± 21.2 | initial heading angle, training day 4 ([3]; A β 25-35 + drug at 8 mg/kg): 30.4 ± 14.8 | initial heading angle, training day 5 ([3]; A β 25-35 + drug at 8 mg/kg): 17.6 ± 9.5 | initial heading angle, training day 1 ([3]; A β 25-35 + drug at 40 mg/kg): 101.5 ± 24.3 | initial heading angle, training day 2 ([3]; A β 25-35 + drug at 40 mg/kg): 83.5 ± 21.8 | initial heading angle, training day 3 ([3]; A β 25-35 + drug at 40 mg/kg): 51.2 ± 18.7 | initial heading angle, training day 4 ([3]; A β 25-35 + drug at 40 mg/kg): 28.4 ± 13.2 | initial heading angle, training day 5 ([3]; A β 25-35 + drug at 40 mg/kg): 20.7 ± 8.7 | appearance of taxis and line search strategies ([3]; from the 3th training day): increased markedly | Bcl-2 expression level [4]: significantly increase the Bcl-2 expression level | mitochondrial complex I activity ([5]; 10^−5M): 2.16±0.2 umol/mg pro/min | mitochondrial complex I activity ([5]; 10^−7M): 1.57±0.12 umol/mg pro/min | mitochondrial complex IV activity ([6]; 10^−5M): 0.18±0.01 umol/mg pro/min | mitochondrial complex IV activity ([6]; 10^−6M): 0.15±0.02 umol/mg pro/min | mitochondrial complex IV activity ([6]; 10^−7M): 0.12±0.015 umol/mg pro/min | mitochondrial cytochrome c content after Bax α induced release ([7]; 10^−5M, Bax alone 50.2±3.65): 67.95±7.6 μg/mg pro | mitochondrial cytochrome c content after Bax α induced release ([7]; 10^−6M, Bax alone 50.2±3.65): 61.7±5.3 μg/mg pro | mitochondrial cytochrome c content after Bax α induced release ([7]; 10^−7M, His-tagged Bax alone 50.2±3.65, no Bax 74.43±5.69): 58.73±3.77 μg/mg pro | apoptosis in three apoptotic models [8]: inhibited apoptosis significantly | Error number, Step-down ([9]; 5 mg/kg oral once): 0.5 ± 0.5 | Latencies, Step-down ([9]; 5 mg/kg oral once): 186 ± 129 s | Error number, Step-down ([9]; 10 mg/kg oral once): 0.2 ± 0.4 | Latencies, Step-down ([9]; 10 mg/kg oral once): 296 ± 97 s | Error number, Step-down ([9]; 50 mg/kg oral once): 0.2 ± 0.4 | Latencies, Step-down ([9]; 50 mg/kg oral once): 265 ± 91 s | PSA (%), 15 min [10]: 131.8 ± 0.4% | PSA (%), 30 min [10]: 138.5 ± 8.9% | PSA (%), 60 min [10]: 158.1 ± 4.2% | synapses density in weaning mice [11]: increased synapses density | protein biosyntheses of mice brain [12]: increased | zif/268 mRNA and protein expression [12]: promoted
